Reference: patent US9247759B2, “Identification of human T2R receptors that respond to bitter compounds that elicit the bitter taste in compositions, and the use thereof in assays to identify compounds that inhibit (block) bitter taste in compositions and use thereof” (SENOMYX, INC., priority 2007, dated 2016)
Like-named read-outs stand apart in the source and are kept apart here.

Key:
hT2R3 = hT2R3 (Homo sapiens (Human), UniProt Q9NYW6); test: hT2R panel inhibition, transient HEK293 G16g44, agonist Chloroquine pH6.5 50 μM; assay type: cell-based; conditions: HEK293, compound at 25 μM; receptor activated to EC80 with the corresponding agonist; read-out: screening result against bitter receptor 3
Procedure, shortened: (§1)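 Receptor activity was measured in functional assays after single-receptor transient transfection; bitter agonists were used at their EC80 levels. A decrease in that activity when the test compound was added was taken as inhibition.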

hT2R5 = hT2R5 (Homo sapiens (Human), UniProt Q9NYW4); test: hT2R panel inhibition, transient HEK293 G16g44, agonist Picoline 10 mM; assay type: cell-based; conditions: HEK293, compound at 25 μM; receptor activated to EC80 with the corresponding agonist; read-out: screening result against bitter receptor 5
Procedure, shortened: as §1

hT2R7 = hT2R7 (Homo sapiens (Human), UniProt Q9NYW3); test: hT2R panel inhibition, transient HEK293 G16g44, agonist Chloroquine pH6.5 10 mM; assay type: cell-based; conditions: HEK293, compound at 25 μM; receptor activated to EC80 with the corresponding agonist; read-out: screening result against bitter receptor 7
Procedure, shortened: as §1

hT2R9 = hT2R9 (Homo sapiens (Human), UniProt Q9NYW1); test: hT2R panel inhibition, transient HEK293 G16g44, agonist Ofloxacin 1 mM; assay type: cell-based; conditions: HEK293, compound at 25 μM; receptor activated to EC80 with the corresponding agonist; read-out: screening result against bitter receptor 9
Procedure, shortened: as §1

hT2R10 = hT2R10 (Homo sapiens (Human), UniProt Q9NYW0); test: hT2R panel inhibition, transient HEK293 G16g44, agonist Strychnine 50 μM; assay type: cell-based; conditions: HEK293, read-out: screening result against bitter receptor 10, compound at 25 μM; receptor activated to EC80 with the corresponding agonist
hT2R13 = hT2R13 (Homo sapiens (Human), UniProt Q9NYV9); test: hT2R panel inhibition, transient HEK293 G16g44, agonist Oxyphenonium 1 mM; assay type: cell-based; conditions: HEK293, compound at 25 μM; receptor activated to EC80 with the corresponding agonist; read-out: screening result against bitter receptor 13
Procedure, shortened: as §1

hT2R14 [1] = target: T1, hT2R14 (Homo sapiens (Human), UniProt Q9NYV8); test: hT2R panel inhibition, transient HEK293 G16g44, agonist Aristolochic Acid 2 μM; assay type: cell-based; conditions: HEK293, compound at 25 μM; receptor activated to EC80 with the corresponding agonist; read-out: screening result against bitter receptor 14
Procedure, shortened: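 Each hT2R was transiently transfected into HEK293 cells stably expressing G16g44 and assayed functionally for inhibition of agonist response. Agonists were applied at EC80: andrographolide at 0.5 mM for hT2R8 and aristolochic acid at 2 μM for hT2R14.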

hT2R16 = hT2R16 (Homo sapiens (Human), UniProt Q9NYV7); test: hT2R panel inhibition, transient HEK293 G16g44, agonist Salicin 1 mM; assay type: cell-based; conditions: HEK293, compound at 25 μM; receptor activated to EC80 with the corresponding agonist; read-out: screening result against bitter receptor 16
Procedure, shortened: as §1

hT2R44 = test: hT2R panel inhibition, transient HEK293 G16g44, agonist Denatonium 0.5 μM; assay type: cell-based, human; conditions: compound at 25 μM; receptor activated to EC80 with the corresponding agonist
Procedure, shortened: as §1

hT2R51 = hT2R51 (Homo sapiens (Human), UniProt P59533); test: hT2R panel inhibition, transient HEK293 G16g44, agonist Prop 2.5 μM; assay type: cell-based; conditions: HEK293, compound at 25 μM; receptor activated to EC80 with the corresponding agonist; read-out: screening result against bitter receptor 51
Procedure, shortened: as §1

hT2R54 = test: hT2R panel inhibition, transient HEK293 G16g44, agonist Ranitidine 5 mM; assay type: cell-based, human; conditions: compound at 25 μM; receptor activated to EC80 with the corresponding agonist
Procedure, shortened: as §1

hT2R55 = test: hT2R panel inhibition, transient HEK293 G16g44, agonist Cinchonine 150 μM; assay type: cell-based, human; conditions: compound at 25 μM; receptor activated to EC80 with the corresponding agonist
Procedure, shortened: as §1

hT2R61 = hT2R61 (Homo sapiens (Human), UniProt P59537); test: hT2R panel inhibition, transient HEK293 G16g44, agonist Aristolochic Acid 25 nM; assay type: cell-based; conditions: HEK293, compound at 25 μM; receptor activated to EC80 with the corresponding agonist; read-out: screening result against bitter receptor 61
Procedure, shortened: as §1

hT2R63 = test: hT2R panel inhibition, transient HEK293 G16g44, agonist Caffeine 1 mM or Andrographolide 100 μM; assay type: cell-based, human; conditions: compound at 25 μM; receptor activated to EC80 with the corresponding agonist
Procedure, shortened: as §1

hT2R64 = hT2R64 (Homo sapiens (Human), UniProt P59538); test: hT2R panel inhibition, transient HEK293 G16g44, agonist Aristolochic Acid 1 μM; assay type: cell-based; conditions: HEK293, compound at 25 μM; receptor activated to EC80 with the corresponding agonist; read-out: screening result against bitter receptor 64
Procedure, shortened: as §1

hT2R65 = test: hT2R panel inhibition, transient HEK293 G16g44, agonist Oleuropein 1 mM; assay type: cell-based, human; conditions: compound at 25 μM; receptor activated to EC80 with the corresponding agonist
Procedure, shortened: as §1

hT2R67 = test: hT2R panel inhibition, transient HEK293 G16g44, agonist Andrographolide 5 μM; assay type: cell-based, human; conditions: compound at 25 μM; receptor activated to EC80 with the corresponding agonist
Procedure, shortened: as §1

hT2R71 = hT2R71 (Homo sapiens (Human), UniProt P59536); test: hT2R panel inhibition, transient HEK293 G16g44, agonist Picric Acid 10 μM; assay type: cell-based; conditions: HEK293, compound at 25 μM; receptor activated to EC80 with the corresponding agonist; read-out: screening result against bitter receptor 71
Procedure, shortened: as §1

hT2R75 = hT2R75 (Homo sapiens (Human), UniProt P59540); test: hT2R panel inhibition, transient HEK293 G16g44, agonist Strychnine 1 μM; assay type: cell-based; conditions: HEK293, read-out: screening result against bitter receptor 75, compound at 25 μM; receptor activated to EC80 with the corresponding agonist
hT2R8 = hT2R8 (Homo sapiens (Human), UniProt Q9NYW2); test: hT2R8 antagonist high-throughput FLIPR assay, stable cell line with G16g44, agonist andrographolide; assay type: cell-based
Procedure, shortened: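 HEK293 cells stably co-expressing hT2R8 and chimeric G16g44, read on FLIPR. Test compounds added together with andrographolide (200 μM), which drives the receptor to 70–80% of maximal activity; antagonism seen as reduced agonist response.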

hT2R14 [2] = target: T1, hT2R14; test: hT2R14 antagonist high-throughput FLIPR assay, stable cell line with G16g44, agonist aristolochic acid; assay type: cell-based; conditions: read-out: IC50 on hT2R14 bitter receptor
Procedure, shortened: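 HEK293 cells stably expressing hT2R14 with chimeric G16g44 were stimulated with aristolochic acid (3 μM), giving 70-80% of maximal receptor activity. Test compounds were added together with the agonist, and antagonism was read as fluorescent calcium signal on FLIPR.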

hT2R4 = hT2R4 (Homo sapiens (Human), UniProt Q9NYW5); test: hT2R panel inhibition, transient HEK293 G16g44, agonist Chloroquine pH6.5 5 mM; assay type: cell-based; conditions: HEK293, compound at 25 μM; receptor activated to EC80 with the corresponding agonist; class symbols; read-out: screening result against bitter receptor 4
Procedure, shortened: as §1

[3] = read-out: IC50 on hT2R8 bitter receptor
[4] = table after Example 10-97, read-out: hT2R8 IC50

hT2R9, sequence (Q9NYW1 whole entry): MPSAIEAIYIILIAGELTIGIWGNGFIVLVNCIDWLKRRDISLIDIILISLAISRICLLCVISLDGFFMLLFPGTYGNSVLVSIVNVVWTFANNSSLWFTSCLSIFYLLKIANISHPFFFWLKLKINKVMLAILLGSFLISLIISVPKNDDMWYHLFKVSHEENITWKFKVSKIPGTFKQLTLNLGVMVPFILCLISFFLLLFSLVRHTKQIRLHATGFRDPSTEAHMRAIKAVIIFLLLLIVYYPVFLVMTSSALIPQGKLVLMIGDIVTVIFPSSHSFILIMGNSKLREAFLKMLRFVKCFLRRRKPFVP
hT2R5, sequence (Q9NYW4 whole entry): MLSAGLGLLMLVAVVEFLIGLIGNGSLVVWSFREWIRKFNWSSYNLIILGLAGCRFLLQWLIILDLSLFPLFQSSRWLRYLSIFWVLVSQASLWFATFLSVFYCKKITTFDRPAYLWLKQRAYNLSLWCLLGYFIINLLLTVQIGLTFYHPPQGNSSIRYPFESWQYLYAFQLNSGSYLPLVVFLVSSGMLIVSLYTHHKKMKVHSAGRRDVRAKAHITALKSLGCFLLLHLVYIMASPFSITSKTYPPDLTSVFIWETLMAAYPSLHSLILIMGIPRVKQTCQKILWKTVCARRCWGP
hT2R13, sequence (Q9NYV9 whole entry): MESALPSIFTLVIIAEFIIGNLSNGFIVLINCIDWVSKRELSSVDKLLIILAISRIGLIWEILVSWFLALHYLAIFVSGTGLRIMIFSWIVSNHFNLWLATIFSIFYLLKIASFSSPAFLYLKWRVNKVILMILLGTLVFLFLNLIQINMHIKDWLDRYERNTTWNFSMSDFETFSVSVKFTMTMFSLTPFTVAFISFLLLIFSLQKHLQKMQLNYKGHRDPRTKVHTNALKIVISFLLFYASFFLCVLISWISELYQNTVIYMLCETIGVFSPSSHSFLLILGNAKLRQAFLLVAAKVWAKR
hT2R71, sequence (P59536 whole entry): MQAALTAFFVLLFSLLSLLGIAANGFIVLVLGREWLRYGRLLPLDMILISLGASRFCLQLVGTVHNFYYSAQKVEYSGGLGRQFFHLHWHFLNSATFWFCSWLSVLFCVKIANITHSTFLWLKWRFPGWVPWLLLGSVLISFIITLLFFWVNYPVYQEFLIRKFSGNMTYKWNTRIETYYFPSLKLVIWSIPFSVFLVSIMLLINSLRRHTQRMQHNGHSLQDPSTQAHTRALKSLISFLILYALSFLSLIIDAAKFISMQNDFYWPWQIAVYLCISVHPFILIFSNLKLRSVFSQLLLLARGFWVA
hT2R16, sequence (Q9NYV7 whole entry): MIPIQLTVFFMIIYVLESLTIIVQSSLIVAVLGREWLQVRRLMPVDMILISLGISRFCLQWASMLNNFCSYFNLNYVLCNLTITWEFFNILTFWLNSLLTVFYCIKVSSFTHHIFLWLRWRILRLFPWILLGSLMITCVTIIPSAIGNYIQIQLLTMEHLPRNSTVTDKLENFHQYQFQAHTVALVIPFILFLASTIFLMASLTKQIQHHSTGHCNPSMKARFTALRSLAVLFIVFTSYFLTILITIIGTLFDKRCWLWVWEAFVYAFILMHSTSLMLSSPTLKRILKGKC
hT2R7, sequence (Q9NYW3 whole entry): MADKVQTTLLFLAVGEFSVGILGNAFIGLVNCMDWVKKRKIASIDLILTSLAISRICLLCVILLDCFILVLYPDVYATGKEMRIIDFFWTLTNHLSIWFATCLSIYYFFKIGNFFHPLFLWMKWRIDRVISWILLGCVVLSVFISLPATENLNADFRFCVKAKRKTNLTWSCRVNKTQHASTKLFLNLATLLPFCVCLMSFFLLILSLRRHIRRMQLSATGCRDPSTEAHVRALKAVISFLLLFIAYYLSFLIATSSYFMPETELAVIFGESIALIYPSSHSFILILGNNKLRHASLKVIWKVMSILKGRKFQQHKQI
hT2R51, sequence (P59533 whole entry): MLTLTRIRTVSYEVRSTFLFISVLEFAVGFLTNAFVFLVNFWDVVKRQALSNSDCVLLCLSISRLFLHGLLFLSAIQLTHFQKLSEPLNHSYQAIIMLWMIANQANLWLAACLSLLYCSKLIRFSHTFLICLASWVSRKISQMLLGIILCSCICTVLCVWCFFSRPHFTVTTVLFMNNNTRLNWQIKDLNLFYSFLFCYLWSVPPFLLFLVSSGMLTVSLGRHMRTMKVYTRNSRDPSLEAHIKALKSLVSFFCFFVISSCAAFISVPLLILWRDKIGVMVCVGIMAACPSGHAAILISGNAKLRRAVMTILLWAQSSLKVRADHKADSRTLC
hT2R10, sequence (Q9NYW0 whole entry): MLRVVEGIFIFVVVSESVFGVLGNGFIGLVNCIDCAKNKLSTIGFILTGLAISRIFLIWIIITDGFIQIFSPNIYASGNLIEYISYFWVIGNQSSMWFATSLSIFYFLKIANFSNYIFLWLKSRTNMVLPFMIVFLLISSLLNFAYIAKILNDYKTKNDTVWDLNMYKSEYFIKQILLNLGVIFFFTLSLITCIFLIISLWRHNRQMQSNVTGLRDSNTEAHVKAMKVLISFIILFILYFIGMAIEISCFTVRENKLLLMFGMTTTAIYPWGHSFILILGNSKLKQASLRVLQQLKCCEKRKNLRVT
hT2R8, sequence (Q9NYW2 whole entry): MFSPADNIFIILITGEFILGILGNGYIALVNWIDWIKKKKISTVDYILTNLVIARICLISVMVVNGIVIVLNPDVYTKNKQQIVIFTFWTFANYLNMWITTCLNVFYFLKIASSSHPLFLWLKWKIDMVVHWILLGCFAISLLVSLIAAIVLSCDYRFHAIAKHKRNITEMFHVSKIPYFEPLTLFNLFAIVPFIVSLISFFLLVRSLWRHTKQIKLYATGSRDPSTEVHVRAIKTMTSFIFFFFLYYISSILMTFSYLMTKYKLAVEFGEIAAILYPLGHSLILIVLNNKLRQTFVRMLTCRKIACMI
T1 sequence (Q9NYV8 whole entry): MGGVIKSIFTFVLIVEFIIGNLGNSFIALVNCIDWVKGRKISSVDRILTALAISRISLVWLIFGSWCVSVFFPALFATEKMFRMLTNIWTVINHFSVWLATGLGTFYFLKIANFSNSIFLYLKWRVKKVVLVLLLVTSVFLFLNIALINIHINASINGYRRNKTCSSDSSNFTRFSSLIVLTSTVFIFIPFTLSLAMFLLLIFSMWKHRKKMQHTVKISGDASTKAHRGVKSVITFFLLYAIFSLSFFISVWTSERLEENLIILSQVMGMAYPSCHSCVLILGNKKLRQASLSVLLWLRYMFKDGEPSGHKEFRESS
hT2R64, sequence (P59538 whole entry): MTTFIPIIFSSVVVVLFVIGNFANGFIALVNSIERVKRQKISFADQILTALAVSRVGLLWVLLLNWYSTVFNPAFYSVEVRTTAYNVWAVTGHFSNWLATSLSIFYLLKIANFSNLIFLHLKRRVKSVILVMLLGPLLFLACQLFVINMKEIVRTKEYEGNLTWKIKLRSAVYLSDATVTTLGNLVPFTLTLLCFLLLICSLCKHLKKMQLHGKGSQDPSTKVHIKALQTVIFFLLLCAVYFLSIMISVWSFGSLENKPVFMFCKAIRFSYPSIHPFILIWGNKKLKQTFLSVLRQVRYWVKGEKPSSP
hT2R61, sequence (P59537 whole entry): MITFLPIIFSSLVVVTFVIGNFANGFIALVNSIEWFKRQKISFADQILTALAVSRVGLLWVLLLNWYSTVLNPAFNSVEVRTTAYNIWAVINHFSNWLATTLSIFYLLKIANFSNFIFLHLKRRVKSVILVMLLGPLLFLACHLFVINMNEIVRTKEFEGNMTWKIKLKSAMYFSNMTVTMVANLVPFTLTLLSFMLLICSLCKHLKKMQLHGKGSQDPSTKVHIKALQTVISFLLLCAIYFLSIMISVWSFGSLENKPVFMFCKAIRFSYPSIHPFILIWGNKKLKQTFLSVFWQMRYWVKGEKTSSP
hT2R3, sequence (Q9NYW6 whole entry): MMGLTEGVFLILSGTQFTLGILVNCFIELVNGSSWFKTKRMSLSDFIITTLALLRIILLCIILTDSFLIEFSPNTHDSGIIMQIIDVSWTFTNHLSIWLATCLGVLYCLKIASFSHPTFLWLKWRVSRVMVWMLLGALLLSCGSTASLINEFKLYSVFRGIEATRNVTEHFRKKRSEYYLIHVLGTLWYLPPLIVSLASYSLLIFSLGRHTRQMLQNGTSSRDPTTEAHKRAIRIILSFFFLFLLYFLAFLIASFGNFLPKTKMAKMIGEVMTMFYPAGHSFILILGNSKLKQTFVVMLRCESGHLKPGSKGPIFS
hT2R75, sequence (P59540 whole entry): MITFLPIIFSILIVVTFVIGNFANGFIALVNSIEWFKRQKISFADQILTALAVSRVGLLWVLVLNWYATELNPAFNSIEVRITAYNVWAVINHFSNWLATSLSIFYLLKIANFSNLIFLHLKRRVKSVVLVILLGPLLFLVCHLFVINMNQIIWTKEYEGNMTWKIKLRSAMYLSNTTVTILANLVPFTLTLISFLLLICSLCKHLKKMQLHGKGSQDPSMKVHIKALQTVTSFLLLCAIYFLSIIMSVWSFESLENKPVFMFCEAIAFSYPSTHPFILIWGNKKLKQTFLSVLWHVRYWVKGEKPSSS
hT2R4, sequence (Q9NYW5 whole entry): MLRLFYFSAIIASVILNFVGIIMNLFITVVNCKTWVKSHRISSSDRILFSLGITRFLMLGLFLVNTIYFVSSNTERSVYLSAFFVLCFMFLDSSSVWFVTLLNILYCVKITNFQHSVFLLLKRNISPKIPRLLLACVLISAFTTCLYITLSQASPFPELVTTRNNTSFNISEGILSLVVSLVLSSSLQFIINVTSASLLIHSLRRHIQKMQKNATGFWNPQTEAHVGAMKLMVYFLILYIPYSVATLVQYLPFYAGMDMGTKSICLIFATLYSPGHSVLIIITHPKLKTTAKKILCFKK

Row | Structure (SMILES) | inhibition at 25 µM (hT2R3) | inhibition at 25 µM (hT2R5) | inhibition at 25 µM (hT2R7) | inhibition at 25 µM (hT2R9) | inhibition at 25 µM (hT2R10) | inhibition at 25 µM (hT2R13) | inhibition at 25 µM (hT2R14 [1]) | inhibition at 25 µM (hT2R16) | screening result against bitter receptor 44 (hT2R44) | inhibition at 25 µM (hT2R51) | screening result against bitter receptor 54 (hT2R54) | screening result against bitter receptor 55 (hT2R55) | inhibition at 25 µM (hT2R61) | screening result against bitter receptor 63 (hT2R63) | inhibition at 25 µM (hT2R64) | screening result against bitter receptor 65 (hT2R65) | screening result against bitter receptor 67 (hT2R67) | inhibition at 25 µM (hT2R71) | IC50 (hT2R8; [3]) | melting point | further results
1 | COc1ccc(CN(Cc2ccccc2)S(=O)(=O)c2ccc(C(=O)O)cc2)cc1C [Example 5-89, 4-(N-benzyl-N-(4-methoxy-3-methylbenzyl)sulfamoyl)benzoic acid] | 40 to 60% | 20 to 40% | 40 to 60% | 20 to 40% | 60 to 80% | 20 to 40% | > 80% | 20 to 40% | +++ (60% to 80% inhibition = +++) | > 80% | + (20% to 40% inhibition = +) | ++++ (80% or greater inhibition = ++++) | > 80% | ++++ (80% or greater inhibition = ++++) | 60 to 80% | ++++ (80% or greater inhibition = ++++) | + (20% to 40% inhibition = +) | 60 to 80% |  |  | inhibition at 25 µM (hT2R75): 20 to 40%
2 | Cc1noc(C)c1Cn1cc(N2C(=O)CN(CCc3cccc(F)c3)C2=O)cn1 [Example 10-77, 3-(1-((3,5-dimethylisoxazol-4-yl)methyl)-1H-pyrazol-4-yl)-1-(3-fluorophenethyl)imidazolidine-2,4-dione] |  |  |  |  |  |  |  |  |  |  |  |  |  |  |  |  |  |  | 60 nM | 110 to 111 °C | IC50 (hT2R8; [4]): 64 nM
3 | COc1ccc(CN(Cc2cccc(F)c2)S(=O)(=O)c2ccc(C(=O)O)cc2)cc1 [Example 5-12, 4-(N-(3-fluorobenzyl)-N-(4-methoxybenzyl)sulfamoyl)benzoic acid] | 60 to 80% | 40 to 60% | 40 to 60% | 40 to 60% | > 80% | 20 to 40% | > 80% | 60 to 80% | +++ (60% to 80% inhibition = +++) | > 80% | ++++ (80% or greater inhibition = ++++) | ++++ (80% or greater inhibition = ++++) | > 80% | ++++ (80% or greater inhibition = ++++) | 60 to 80% | ++++ (80% or greater inhibition = ++++) | +++ (60% to 80% inhibition = +++) | > 80% |  |  | inhibition at 25 µM (hT2R75): 20 to 40%
4 | Cc1noc(C)c1Cn1cc(N2C(=O)NC(Cc3ccccc3)C2=O)cn1 (stereo not shown) [Example 10-2, 5-benzyl-3-(1-((3,5-dimethylisoxazol-4-yl)methyl)-1H-pyrazol-4-yl)imidazolidine-2,4-dione] |  |  |  |  |  |  |  |  |  |  |  |  |  |  |  |  |  |  | 180 nM | 169 to 171 °C | 
5 | Cc1noc(C)c1Cn1cc(N2C(=O)c3ccccc3C2=O)cn1 [Example 9-1, 2-(1-((3,5-dimethylisoxazol-4-yl)methyl)-1H-pyrazol-4-yl)isoindoline-1,3-dione] |  |  |  |  |  |  |  |  |  |  |  |  |  |  |  |  |  |  | 180 nM | 170 to 171 °C | 
6 | Cc1noc(C)c1Cn1cc(N2C(=O)CN(CCc3ccccc3)C2=O)cn1 [Example 10-78, 3-(1-((3,5-dimethylisoxazol-4-yl)methyl)-1H-pyrazol-4-yl)-1-phenethylimidazolidine-2,4-dione] |  |  |  |  |  |  |  |  |  |  |  |  |  |  |  |  |  |  | 140 nM | 95 to 96 °C | IC50 (hT2R8; [4]): 139 nM
7 | COc1ccc(CN(CC2CCCCC2)S(=O)(=O)c2ccc(C(=O)O)cc2)cc1 [Example 5-23, 4-(N-(cyclohexylmethyl)-N-(4-methoxybenzyl)sulfamoyl)-benzoic acid] | 60 to 80% | 40 to 60% | 40 to 60% | 40 to 60% | > 80% | 20 to 40% | > 80% | 60 to 80% |  | 40 to 60% |  | ++++ (80% or greater inhibition = ++++) | > 80% |  | 60 to 80% | ++++ (80% or greater inhibition = ++++) | ++ (40% to 60% inhibition = ++) | > 80% |  |  | IC50 (hT2R14 [2]): 3470 nM; inhibition at 25 µM (hT2R4): 40 to 60%; inhibition at 25 µM (hT2R75): 40 to 60%
8 | COc1ccc(CN(Cc2cccc(F)c2F)S(=O)(=O)c2ccc(C(=O)O)cc2)cc1 [Example 5-33, 4-(N-(2,3-difluorobenzyl)-N-(4-methoxybenzyl)sulfamoyl)benzoic acid] | 40 to 60% | 40 to 60% | 20 to 40% | 20 to 40% | 60 to 80% | 20 to 40% | > 80% | 40 to 60% | +++ (60% to 80% inhibition = +++) | 40 to 60% | +++ (60% to 80% inhibition = +++) | ++++ (80% or greater inhibition = ++++) | > 80% | +++ (60% to 80% inhibition = +++) | 60 to 80% | +++ (60% to 80% inhibition = +++) | ++ (40% to 60% inhibition = ++) | 60 to 80% |  |  | inhibition at 25 µM (hT2R4): 40 to 60%
